US20260000075A1, “HERBICIDAL MALONIC ACID MONOAMIDES AND MALONAMIDE ESTERS” (BASF SE, priority 2022, published 2026)

Key:
APESV = assay: greenhouse pre-emergence herbicidal test; assay type: in vivo, Apera spica-venti; conditions: pre-emergence method, scale from 0 to 100
Description: (§1) The culture containers used were plastic flowerpots containing loamy sand with approximately 3.0% of humus as the substrate. The seeds of the test plants were sown separately for each species.
(§2) For the pre-emergence treatment, the active ingredients, which had been suspended or emulsified in water, were applied directly after sowing by means of finely distributing nozzles. The containers were irrigated gently to promote germination and growth and subsequently covered with transparent plastic hoods until the test plants had rooted.
(§3) This cover caused uniform germination of the test plants, unless this had been impaired by the active ingredients.
(§4) Depending on the species, the test plants were kept at 10-25° C. or 20-35° C., respectively.
(§5) The test period extended over 2 to 4 weeks. During this time, the test plants were tended, and their response to the individual treatments was evaluated.
(§6) Evaluation was carried out using a scale from 0 to 100. 100 means no emergence of the test plants, or complete destruction of at least the aerial moieties, and 0 means no damage, or normal course of growth. A good herbicidal activity is given at values of 70 to <90 and a very good herbicidal activity is given at values of 90 to 100.
(§7) The test plants used in the greenhouse experiments were of the following species: […]

ECHCG = assay: greenhouse pre-emergence herbicidal test; assay type: in vivo, Echinocloa crus-galli; conditions: pre-emergence method, scale from 0 to 100
Description: as §1, §2, §3, §4, §5, §6, §7

SETFA = assay: greenhouse pre-emergence herbicidal test; assay type: in vivo, Setaria faberi; conditions: pre-emergence method, application rate 0.500 kg/ha, scale from 0 to 100
Description: as §1, §2, §3, §4, §5, §6, §7

ALOMY = assay: greenhouse post-emergence herbicidal test; assay type: in vivo, Alopercurus myosuroides; conditions: post-emergence method, scale from 0 to 100
Description: as §1
(§8) For the post-emergence treatment, the test plants were first grown to a height of 3 to 15 cm, depending on the plant habit, and only then treated with the active ingredients which had been suspended or emulsified in water. For this purpose, the test plants were either sown directly and grown in the same containers, or they were first grown separately as seedlings and transplanted into the test containers a few days prior to treatment.
as §4, §5, §6, §7

AMARE [1] = assay: greenhouse pre-emergence herbicidal test; assay type: in vivo, Amaranthus retroflexus; conditions: pre-emergence method, scale from 0 to 100
Description: as §1, §2, §3, §4, §5, §6, §7

SETVI [2] = assay: greenhouse pre-emergence herbicidal test; assay type: in vivo, Setaria viridis; conditions: pre-emergence method, application rate 0.500 kg/ha, scale from 0 to 100
Description: as §1, §2, §3, §4, §5, §6, §7

LOLMU = assay: greenhouse pre-emergence herbicidal test; assay type: in vivo, Lolium multiflorum; conditions: pre-emergence method, application rate 1.000 kg/ha, scale from 0 to 100
Description: as §1, §2, §3, §4, §5, §6, §7

DIGSA = assay: greenhouse pre-emergence herbicidal test; assay type: in vivo, Digitaria sanguinalis; conditions: pre-emergence method, application rate 1.000 kg/ha, scale from 0 to 100
Description: as §1, §2, §3, §4, §5, §6, §7

AMARE [3] = assay: greenhouse post-emergence herbicidal test; assay type: in vivo, Amaranthus retroflexus; conditions: post-emergence method, application rate 1.000 kg/ha, scale from 0 to 100
Description: as §1, §8, §4, §5, §6, §7

AVEFA = assay: greenhouse post-emergence herbicidal test; assay type: in vivo, Avena fatua; conditions: post-emergence method, application rate 1.000 kg/ha, scale from 0 to 100
Description: as §1, §8, §4, §5, §6, §7

SETVI [4] = assay: greenhouse post-emergence herbicidal test; assay type: in vivo, Setaria viridis; conditions: post-emergence method, application rate 0.250 kg/ha, scale from 0 to 100
Description: as §1, §8, §4, §5, §6, §7

## 5-[(3,5-difluorophenyl)carbamoyl]-hydrofuran-5-carboxylic acid [compound 1.7]
APESV; application rate 0.500 kg/ha
  herbicidal activity against APESV: very good (a very good herbicidal activity is given at values of 90 to 100)
ECHCG; application rate 0.500 kg/ha
  herbicidal activity against ECHCG: good (A good herbicidal activity is given at values of 70 to <90)
SETFA
  herbicidal activity against SETFA: good (A good herbicidal activity is given at values of 70 to <90)
ALOMY; application rate 0.500 kg/ha
  herbicidal activity against ALOMY: very good (a very good herbicidal activity is given at values of 90 to 100)

## CC1=CCOC1(C(=O)O)C(=O)Nc1cc(Cl)cc(Cl)c1 (stereo not shown) [compound 1.6]
AMARE [1]; application rate 0.125 kg/ha
  herbicidal activity against AMARE: good (A good herbicidal activity is given at values of 70 to <90)
APESV; application rate 0.125 kg/ha
  herbicidal activity against APESV: good (A good herbicidal activity is given at values of 70 to <90)

## CSCCOC(=O)C1(C(=O)Nc2cc(F)cc(F)c2)C=CCO1 (stereo not shown) [compound 1.9]
SETVI [2]
  herbicidal activity against SETVI: very good (a very good herbicidal activity is given at values of 90 to 100)

## CCOC(=O)C1(C(=O)Nc2cc(F)cc(F)c2)CC=CO1 (stereo not shown) [compound 1.25, ethyl 2-[(3,5-difluorophenyl)carbamoyl]-3H-furan-2-carboxylate]
ALOMY; application rate 0.250 kg/ha
  herbicidal activity against ALOMY: very good (a very good herbicidal activity is given at values of 90 to 100)

## O=C(O)C1(C(=O)Nc2cc(F)cc(F)c2)CC=CO1 (stereo not shown) [compound 1.26, 2-[(3,5-difluorophenyl)carbamoyl]-3H-furan-2-carboxylate]
LOLMU
  herbicidal activity against LOLMU: very good (a very good herbicidal activity is given at values of 90 to 100)
DIGSA
  herbicidal activity against DIGSA: very good (a very good herbicidal activity is given at values of 90 to 100)
AMARE [3]
  herbicidal activity against AMARE: good (A good herbicidal activity is given at values of 70 to <90)
AVEFA
  herbicidal activity against AVEFA: very good (a very good herbicidal activity is given at values of 90 to 100)

## CCOC(=O)C1(C(=O)Nc2cc(Cl)cc(Cl)c2)CCO1 (stereo not shown) [compound 11.1, ethyl 2-[(3,5-dichlorophenyl)carbamoyl]oxetane-2-carboxylate]
APESV; application rate 1.000 kg/ha
  herbicidal activity against APESV: good (A good herbicidal activity is given at values of 70 to <90)
ECHCG; application rate 1.000 kg/ha
  herbicidal activity against ECHCG: good (A good herbicidal activity is given at values of 70 to <90)

## O=C(O)C1(C(=O)Nc2cc(F)cc(F)c2)CCO1 (stereo not shown) [compound 11.5]
SETVI [4]
  herbicidal activity against SETVI: very good (a very good herbicidal activity is given at values of 90 to 100)

## CS(=O)(=O)CCOC(=O)C1(C(=O)Nc2cc(F)cc(F)c2)CCO1 (stereo not shown) [compound 11.8]
AMARE [1]; application rate 0.250 kg/ha
  herbicidal activity against AMARE: good (A good herbicidal activity is given at values of 70 to <90)
